Test results taken from patent US11572377B2, “Nucleotide analogs” (The Regents of the University of California, priority 2015, dated 2023).
Where two headings read alike, the source gives them in different places.

Experiments:
[1] = tested on: HPV-11; experiment: Low risk HPV assay: HPV origin plasmid replication in HEK 293 cells (qPCR); assay type: cell-based, human papillomavirus
Description: (§1) An origin-containing low risk or high risk HPV plasmid was co-transfected with homologous E1 and E2 protein expression vectors into HEK 293 cells. At 4 h post-transfection, cells were treated with test compound dilutions and then incubated for 48 h. HPV origin plasmid replication was detected after digestion with DpnI and exonuclease III to remove unreplicated transfected plasmids. Remaining replicated DNA was quantified by quantitative real time PCR (qPCR). In a parallel experiment in uninfected cells cytotoxicity was determined by trypan blue exclusion or CELLTITER-GLO® to find the concentration that reduced viable cell number by 50% (CC50). CC50 values were determined by trypan blue exclusion or CELLTITER-GLO® and the selectivity index calculated (Selectivity index=CC50/EC50). The low risk HPV tested was HPV-11, and the high-risk HPV tested was HPV-16 and HPV-18.

[2] = Cytotoxicity assay in HEK-293 cells (CELLTITER-GLO); assay type: cell-based; settings: human; for CC50 at 2 d: Table 3, CELLTITER-GLO, 2 d incubation; for CC50 at 48 h: Table B, parallel to HPV-11 antiviral assay
Description: as §1
Cytotoxicity Assays in HEK-293 cells. Cytotoxicity assays are performed in concurrently with every antiviral assay using the same cell line and media to ensure the same compound exposure. For the antiviral studies against HPV11 in HEK-293 cells, transfected cells are seeded in duplicate plates. Following a 2 h exposure, compound dilutions are prepared in both the antiviral plate and the duplicate cytotoxicity plate. At 48 h following compound addition, CELLTITE-GLO® (Promega) is added to each well and luminescence is determined on a luminometer. Concentrations of compounds sufficient to reduce cell viability by 50% are calculated from the experimental data (CC50 values).

[3] = Cytotoxicity assay in primary human foreskin fibroblast cells (CELLTITER-GLO); assay type: cell-based; settings: Table 3, CELLTITER-GLO, 7 d incubation
Description: Cytotoxicity Assays in Primary Human Foreskin Fibroblast Cells. Cytotoxicity was also evaluated in human foreskin fibroblast (HFF) cells as they are a highly sensitive indicator of toxicity in a standard assay with 7 d of compound exposure. A total of 4000 cells/well are seeded in 384-well plates in cell culture media containing 2% fetal bovine serum and antibiotics. Following a 24 h incubation, 5-fold compound dilutions are performed in duplicate wells directly in the plates containing monolayers of HFF cells. At 7 d following compound addition, CELLTITER-GLO® reagent is added to each well and resulting luminescence is measured on a luminometer to assess the number of viable cells in each well. Data are then used to calculate CC50 values.

[4] = tested on: HPV-16 and HPV-18; experiment: High risk HPV assay: HPV origin plasmid replication in HEK 293 cells (qPCR); assay type: cell-based, human papillomavirus; settings: read-out: EC50 High Risk
Description: as §1

[5] = Human papillomavirus, HEK293, Antiviral activity against HPV-11 in HEK-293 cells, read-out: EC50
[6] = Human papillomavirus, HEK293, Antiviral activity against HPV-11 in HEK-293 cells, read-out: EC90
[7] = primary human foreskin fibroblast (HFF) cells
[8] = low risk HPV (HPV-11), HEK 293 cells, 48 h incubation, read-out: EC50 Low Risk

Row | Compound | EC50 [1, 5] [µM] | EC90 [1, 6] [µM] | CC50 at 2 d ([2]; HEK-293 cells) [µM] | CC50 at 48 h ([2]; HEK-293 cells) [µM] | CC50 at 7 d [3, 7] [µM] | further results
1 | Nc1ccn(C[C@@H](CO)OCP(=O)(O)O)c(=O)n1 [Cidofovir, cidofovir, reference compound] | 41.7 ± 12 | > 300 | > 300 | > 300 | > 300 | –
2 | CCCCCCCCCCCCCCCCCCOCC(COP(=O)(O)COCCn1cnc2c(=O)[nH]c(N)nc21)OCc1ccccc1 (stereo not drawn) [ODBG-PMEG, 1-O-Octadecyl-2-O-benzyl-sn-glyceryl PMEG] | – | – | – | – | – | EC50 ([1]; Human papillomavirus, HEK293, low risk HPV (HPV-11), HEK 293 cells, 48 h incubation, read-out: EC50 Low Risk): 0.3 to 3.09 µM; EC50 ([4]; Human papillomavirus, HEK293, 48 h): 0.3 to 3.09 µM
3 | CCCCCCCCCCCCCCCCCCOCCOP(=O)(COCCn1cnc2c(=O)[nH]c(N)nc21)OCc1ccc(OC)c(Cl)c1 (stereo not drawn) [ODE-(3-Cl-4-OMe-Bn)-PMEG] | 0.68 ± 0.62 | 1.34 ± 0.78 | 8.87 ± 1.2 | 8.31 ± 1.83 | 2.27 ± 0.51 | –
4 | CCCCCCCCCCCCCCCCCCOCCOP(=O)(COCCn1cnc2c(=O)[nH]c(N)nc21)OCc1cccc(Cl)c1 (stereo not drawn) [ODE-(3-Cl-Bn)-PMEG] | 0.22 ± 0.19 | > 0.4 | 1 ± 0.16 | 1.11 ± 0.27 | 4.65 ± 1.73 | –
5 | CCCCCCCCCCCCCCCCCCOCCOP(=O)(COCCn1cnc2c(=O)[nH]c(N)nc21)OCc1ccc(OC)c(F)c1 (stereo not drawn) [ODE-(3-F-4-OMe-Bn)-PMEG] | 0.18 ± 0.04 | 0.99 ± 0.13 | 13.1 ± 5.17 | 14.2 ± 9.48 | 1.72 ± 0.66 | –
6 | CCCCCCCCCCCCCCCCCCOCCOP(=O)(COCCn1cnc2c(=O)[nH]c(N)nc21)OCc1cccc(F)c1 (stereo not drawn) [ODE-(3-F-Bn)-PMEG] | 0.26 | 1.59 ± 0.57 | 2.16 ± 0.36 | 1.74 ± 0.03 | 6.88 ± 4.92 | –
7 | CCCCCCCCCCCCCCCCCCOCCOP(=O)(COCCn1cnc2c(=O)[nH]c(N)nc21)OCc1ccc(C)cc1 (stereo not drawn) [ODE-(4-Me-Bn)-PMEG] | 0.93 ± 0.91 | 7 ± 3.45 | 32 ± 8.14 | 23.8 ± 19.5 | 6.02 ± 3.79 | –
8 | CCCCCCCCCCCCCCCCCCOCCOP(=O)(O)COCCn1cnc2c(=O)[nH]c(N)nc21 [ODE-PMEG, Octadecyloxyethyl-Phosphonomethoxyethylguanine, reference compound] | – | – | – | – | – | EC50 [1, 8]: < 0.3 µM; EC50 ([4]; high risk HPV (HPV-16 and HPV-18), HEK 293 cells, 48 h incubation): < 0.3 µM
9 | CCOC(=O)[C@H](C)NP(=O)(COCCn1cnc2c(=O)[nH]c(N)nc21)N[C@@H](C)C(=O)OCC [PMEG bisamidate, 9-[2-(bis-(ethyloxy-L-alaninyl)-phosphonomethoxy)ethyl]guanine] | 5.04 ± 7.01 | > 100 | > 100 | > 100 | > 100 | –
10 | CCOC(=O)[C@H](C)NP(=O)(COCCn1cnc2c(=O)[nH]c(N)nc21)Oc1ccccc1 (stereo partly drawn) [PMEG phenoxy amidate] | – | – | – | > 100 | – | EC50 ([1]; Human papillomavirus, HEK293): 7.56 ± 0.63 µM; EC90 ([1]; Human papillomavirus, HEK293): > 100 µM; CC50 at 2 d [2]: > 100 µM; CC50 at 7 d ([3]; read-out: CC50 HFF (7 d incubation)): 70.9 ± 4.07 µM
11 | Nc1nc2c(ncn2CCOCP(=O)(O)O)c(=O)[nH]1 [PMEG, 9-(2-phosphonylmethoxyethyl)guanine, reference compound] | – | – | – | – | – | EC50 [1, 8]: 3 to 30 µM
